Source: article PMC6271742, “A Novel Phage-Library-Selected Peptide Inhibits Human TNF-α Binding to Its Receptors” (Molecules, 2014)
Values belong to the substance of their own block, whether it stands above or below them. Bridges are numbered along the chain shown (N, C = ends). Roman numbers before positions name the chains, in order. Where no end group is shown, it is not given here.

Columns and labels:
[1] = tested on: biotinylated hTNF-α; test: Phage ELISA of selected clones; assay type: binding, human; settings: streptavidin-coated 96-well plates coated with 20 nM biotinylated hTNF-α; phage-displayed peptide
Protocol: Random 12-mer peptide phage library Ph.D.™-12 (New England Biolabs, Ipswich, MA, USA) was incubated with biotinylated hTNF-α. 10^11 phage, diluted in PBS (137 mM NaCl, 2 mM KCl, 10 mM Na2HPO4, 2 mM KH2PO4, pH 7.4) containing 0.1% (v/v) Tween 20 (PBST) and 3% bovine albumin (BSA) and incubated with 50 nM biotinylated hTNF-α o/n at 4 °C, was added to 100 μL Dynabeads-M280 coupled with streptavidin (Invitrogen¸ Waltham, MA, USA), saturated with 5% BSA in PBST, for 15 min at room temperature. After washing 10 times with PBST, bound phages were eluted with 5 μM adalimumab for 60 min at room temperature. The amplified phages were titered and underwent two further rounds of biopanning as described above, except that the concentration of biotinylated hTNF-α was diminished (20 nM and 10 nM for the second and third rounds of panning, respectively) and washing was performed using 0.5% (v/v) Tween 20.
In alternative to the selection described above we performed the following panning using SPR technology. Biotinylated hTNF-α was immobilized to the streptavidin (SA) sensor chip surface, obtaining final 2000 Resonance Units. […] For both pannings, the binding of selected clones to hTNF-α after the last round of panning was evaluated by phage ELISA in streptavidin-coated 96-well plates coated with 20 nM biotinylated hTNF-α.

[2] = target: T1, human TNF-α (hTNF-α) (Homo sapiens, UniProt P01375); test: SPR binding of hTNF-α to immobilized biotinylated peptides (Biacore T100); settings: hTNF-α 250 nM to 2 µM over immobilized peptide
T1 construct: peaks around 17,300, 34,700 and 52,100 Da, corresponding to monomeric, homodimeric and homotrimeric forms of hTNF-α; purchased Prospec
Protocol: hTNF-α was injected over linear and tetra-branched peptides previously immobilized on a Biacore T100 SA sensor chip. hTNF-α was flowed at concentrations ranging from 250 nM to 2 µM. To assess any non-specific binding, hTNF-α was also injected over an empty flow cell.
(§1) All the experiments were performed on a Biacore T100 instrument (GE Healthcare, Milan, Italy); materials were purchased from GE Healthcare unless otherwise specified. Adalimumab was a kind gift from Galeazzi, University of Siena. Biotinylated linear and tetra-branched TNF-peptides were immobilized on a SA sensor chip. Briefly, peptides diluted in HBS-EP+ were injected for 60 s at a flow rate of 10 µL/min, obtaining 300 and 700 RUs respectively. Different concentrations of hTNF-α, from 250 nM to 2 µM in HBS-EP+, were injected for 180 s at a flow rate of 75 µL/min onto immobilized peptides. Association and dissociation kinetic rate constants (kon and koff) and the equilibrium dissociation constant Kd were calculated using BIAevaluation 3.0 software. […] Adalimumab monoclonal antibody (1 µg/mL in HBS-EP+ for 45 s at a flow rate of 10 µL/min) was immobilized on a CM5 sensor chip previously coated with Protein A (6500 RUs). Competition experiments were carried out injecting 10 nM hTNF-α for 180 s at flow rate of 30 µL/min with various concentrations (1, 10 and 25 µM) of tetra-branched TNF-peptide. […]

[3] = tested on: murine TNF-α; test: SPR specificity: binding of murine TNF-α to immobilized peptides; settings: data not shown
[4] = target: T2, hTNF-α binding to adalimumab (Homo sapiens, UniProt P01375); test: SPR inhibition of hTNF-α binding to captured adalimumab; settings: 25 µM peptide, 10 nM hTNF-α, adalimumab captured via Protein A on CM5 chip, read-out: inhibition of TNF-α binding to adalimumab
T2 construct: peaks around 17,300, 34,700 and 52,100 Da, corresponding to monomeric, homodimeric and homotrimeric forms of hTNF-α; purchased Prospec
Protocol: The anti-hTNF-α monoclonal antibody adalimumab was captured on a protein-A-coated sensor chip. 10 nM hTNF-α was injected over the immobilized antibody in the presence of different concentrations (25, 10 and 1 µM) of the tetra-branched anti-TNF-α peptide (Figure 3A).
as §1

[5] = tested on: homotrimeric form of hTNF-α; test: MALDI-TOF MS analysis of hTNF-α oligomer dissociation; assay type: biochemical, human; settings: 5 min at room temperature, linear mode
Protocol: To determine whether the anti-TNF-α peptide destabilized the oligomeric form of hTNF-α, we evaluated the distribution of monomeric, dimeric and trimeric hTNF-α by MS in the presence of increasing concentrations of anti-TNF-α peptide.
The anti-TNF-α peptide was incubated in a 3-fold or 10-fold molar excess with respect with hTNF-α at room temperature for 5 min. The dissociation of hTNF-α was analysed by mass spectrometry using a sinapinic acid matrix (Sigma-Aldrich) and a protein standard II (mass range ~10,000–70,000 Da, Brucker Daltonics) in an ultrafleXtreme MALDI-TOF/TOF mass spectrometer (Bruker Daltonics) in linear mode.

T1 sequence (P01375 77-233 limits assumed): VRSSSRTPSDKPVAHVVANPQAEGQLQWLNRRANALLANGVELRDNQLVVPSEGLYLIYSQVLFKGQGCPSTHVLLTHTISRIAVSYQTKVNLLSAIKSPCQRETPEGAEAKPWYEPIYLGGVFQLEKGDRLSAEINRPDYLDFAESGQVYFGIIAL
T2 sequence (P01375 77-233 limits assumed): as above

Substance: HIHDDLLRYYGW
- phage ELISA result for clones expressing the sequence (in words) [1]: positive

- hTNF-α binding (in words) [2]: bound hTNF-α in a dose-dependent manner
Substance: I: HIHDDLLRYYGWKK-NH2 / II: HIHDDLLRYYGWK / III: HIHDDLLRYYGW / IV: HIHDDLLRYYGW (amide I:13-IV:C, I:14-II:C, II:13-III:C; C-terminus assumed) [tetra-branched peptide]
- binding for murine TNF-α (in words) [3]: did not show any binding for murine TNF-α

- inhibition at 25 µM [4]: ~80%
- homo-dimeric hTNF-α peak in MS (in words) ([5]; tenfold molar excess of peptide): the homo-dimeric form also disappeared
Substance: I: HIHDDLLRYYGWKK-NH2 / II: HIHDDLLRYYGWK / III: HIHDDLLRYYGW / IV: HIHDDLLRYYGW (amide I:13-IV:C, I:14-II:C, II:13-III:C) [tetra-branched anti-TNF-α peptide]
- homo-trimeric hTNF-α peak in MS (in words) ([5]; threefold molar excess of peptide): The peak corresponding to the homo-trimeric form disappeared
